Results on one molecule are retold here after patent US11364203B2, “Process for forming active domains dispersed in a matrix” (Bend Research, Inc., priority 2014, dated 2022).

≈ marks a conversion by molar mass, not a printed value.

Usually solubility stands for the concentration that dissolves in the medium under given conditions.

The nature of one series: Solubility in acetone. In kind it is physicochemical. To be noted: acetone at 25° C.
The next series can be described thus: Solubility in water. In kind it is physicochemical.

On to `CCC(=O)O[C@]1(C(=O)SCF)[C@H](C)C[C@H]2[C@@H]3C[C@H](F)C4=CC(=O)C=C[C@]4(C)[C@@]3(F)[C@@H](O)C[C@@]21C` [Fluticasone, (6S,8S,9R,10S,11S,13S,14S,16R,17R)-6,9-difluoro-17-(((fluoromethyl)thio)carbonyl)-11-hydroxy-10,13,16-trimethyl-3-oxo-6,7,8,9,10,11,12,13,14,15,16,17-dodecahydro-3H-cyclopenta[a]phenanthren-17-yl propionate], for which, in “Solubility in acetone”, the solubility in acetone was 9000 µg/mL (≈ 18 mM). For the same molecule, the “solubility in water (in words)” value in “Solubility in water” (water) is “practically insoluble in water”. Also, the solubility in the series “Solubility in water” (water at 25° C.) was less than 1 µg/mL.
